Series [1] can be described thus: Half life in rat at 1 mg/kg, iv by LC-MS/MS analysis. In kind it is ADME, organism-based. Particulars: in vivo.
A short description of series [2]: Oral bioavailability in dog at 1 mg/kg. In kind it is ADME, organism-based, Canis lupus familiaris. Particulars: in vivo.
A short description of series [3]: Metabolic stability in rat liver microsome assessed as clearance. In kind it is ADME. The note with it: liver microsomes. (Microsomes from liver hold many membrane-bound enzymes, among them those of drug oxidation.)
Series [4] can be described thus: Half life in rat at 1 mg/kg, iv. Format: ADME, organism-based. Particulars: in vivo.
For series [5], the target named is T1, Nuclear receptor subfamily 1 group I member 3 (Homo sapiens, UniProt Q14994).
T1 sequence (Q14994 whole entry): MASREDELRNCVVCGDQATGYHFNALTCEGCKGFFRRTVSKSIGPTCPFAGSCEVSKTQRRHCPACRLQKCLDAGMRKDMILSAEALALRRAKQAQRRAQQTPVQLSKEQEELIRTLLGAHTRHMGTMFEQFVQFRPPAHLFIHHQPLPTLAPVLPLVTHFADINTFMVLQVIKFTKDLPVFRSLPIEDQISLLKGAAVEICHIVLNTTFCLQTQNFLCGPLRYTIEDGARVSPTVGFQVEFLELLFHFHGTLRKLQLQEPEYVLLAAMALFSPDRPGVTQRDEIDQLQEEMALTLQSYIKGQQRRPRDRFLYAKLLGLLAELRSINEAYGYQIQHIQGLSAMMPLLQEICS
As to the kind of experiment: Activation of CAR (unknown origin).

The subject of series [6] is Mus musculus. Briefly: Neuroprotective activity against Eif 2bS R191H […] mouse model assessed as reduction in Eif4ebp1 level in brain at 50 mg/kg, po administered for 2 days. In kind it is functional, organism-based. The note with it: time 2.0 day.
The subject of series [7] is Mus musculus. Briefly: Neuroprotective activity against Eif 2bS R191H […] mouse model assessed as reduction in Chac1 level in brain at 50 mg/kg, po administered for 2 days. In kind it is functional, organism-based. Particulars: time 2.0 day.
The test system of series [8] is Mus musculus. Briefly: Neuroprotective activity against Eif 2bS R191H […] mouse model assessed as reduction in Sic7a11 level in brain at 50 mg/kg, po administered for 2 days. In kind it is functional, organism-based. The note with it: time 2.0 day.
Series [9] relates to Mus musculus. Briefly: Neuroprotective activity against Eif 2bS R191H […] mouse model assessed as reduction in Psat1 level in brain at 50 mg/kg, po administered for 2 days. Format: functional, organism-based. Particulars: time 2.0 day.

Active and inactive are the calls of the source.

As usually defined, the half-life is the time needed for the level to fall by half in the phase considered. Read a high half-life as slow loss. For orientation: bioavailability means dose-corrected exposure relative to a reference, in per cent. Read a high bioavailability as much systemic uptake. As to `O=C(COc1ccc(Cl)cc1)NC12CC(c3nnc([C@H]4C[C@@H](OC(F)(F)F)C4)o3)(C1)C2` [EVETIFATOR], the half-life in series [1] and in series [4] was 12.5 h throughout. In addition, the bioavailability in series [2] was greater than 99%. For the same compound, in [3], the CLhep predicted was less than 17 mL/min/kg. The Activity entry in series [5] is listed as “Not Active”. In addition, the outcome with Mus musculus [6], in the series on Mus musculus [7], in the series on Mus musculus [8] and in the series with Mus musculus [9] was Active.

Source of the values: ChEMBL document CHEMBL5543116, “Discovery of DNL343: A Potent, Selective, and Brain-Penetrant eIF2B Activator Designed for the Treatment of Neurodegenerative Diseases” (J Med Chem, 2024).
